Assay results from patent US20230257385A1, “SALT AND SOLID FORMS OF TABERNANTHALOG” (priority 2021, published 2023).
“Also recorded” adds a separate entry of the source. Counter-ions that a name gives are not always drawn.

Legend:
[1] = Qualitative solubility screen of Tabernanthalog sorbate salt (Example 10, Experiment 2); format: physicochemical
Experimental: The qualitative solubility screen was carried out to determine the range of solvents incorporated into future suspension equilibration panels. Products that crystallised were centrifuged and analysed as wet pellet by XRPD, dried under reduced pressure and re-analysed by XRPD, with selected samples further analysed by TGA and ^1H NMR spectroscopy.
If insoluble at 5 vol, the solvent quantity was increased to 10 vol, 15 vol and 20 vol of the respective solvent. The suspensions that occurred upon cooling down were centrifuged and the solvent wet pellets were analysed by XRPD.
The insoluble suspensions were additionally worked up for XRPD analysis. The resultant powder patterns were subsequently cross-referenced against the input supplied material.

[2] = Stability of sorbate salt at 95% RH (KNO3) at 20° C. (Example 10, Experiment 10); format: physicochemical; details: XRPD
Experimental: The samples were maintained under equilibrium humidity of 95% RH at 20° C. and monitored at 5 day by XRPD and 10 day time points by ^1H NMR, XRPD, DSC, TGA and PLM.
Experiment 10-Sample A was open-capped, and Experiment 10-Sample B was open-capped inside double, cable-tied, electrostatic polythene bags (to mimic a typical packaging configuration) and both were placed inside the same humidity chamber at 95% RH at 20° C. The powders were finely divided and distributed evenly over the base of the vial, such that equal material coverage across the panel was observed. The samples were sub-sampled at intervals of t=0, 5 d and 10 d and analysed by XRPD, DSC, TGA and ^1H NMR, for evidence of phase change or chemical degradation

[3] = Solubility determinations in SIF buffers FaSSIF, FeSSIF, FaSSGF (Example 8, Experiment 5); details: for solubility at 24 h: 37 °C, thermodynamic from solid; for fate of the suspended phase in FaSSGF (XRPD, 1H NMR): up to 24 h
Summary of the method: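 Suspensions in FaSSIF, FeSSIF or FaSSGF held at 37° C for 24 h, sampled at set time points and centrifuged. Pellets checked by XRPD, wet and dried, for form change.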

[4] = Acetone/Water (5% v/v, 0.5 aw), 5 vol
[5] = listed as Tabernanthalog sorbate salt (Form A)

Compound: COc1ccc2c3c([nH]c2c1)CCN(C)CC3 [tabernanthalog sorbate salt]
- Solid on cooling ([1]; 2-Propanol, 5 vol): ✓
- Solution at reflux ([1]; 2-Propanol, 5 vol): ✓
- Solid on cooling ([1]; 2-Propanol, 10 vol): ✓
- Solution at reflux ([1]; 2-Propanol, 10 vol): ✓
- Solid on cooling ([1]; 2-Propanol, 15 vol): ✓
- Solution at reflux ([1]; 2-Propanol, 15 vol): ✓
- Solid on cooling ([1]; 2-Propanol, 20 vol): ✓
- Solution at reflux ([1]; 2-Propanol, 20 vol): ✓
- Solid on cooling ([1]; Acetone, 10 vol): ✓
- Solution at reflux ([1]; Acetone, 10 vol): ✓
- Solid on cooling ([1]; Acetone, 15 vol): ✓
- Solution at reflux ([1]; Acetone, 15 vol): ✓
- Solid on cooling ([1]; Acetone, 20 vol): ✓
- Solution at reflux ([1]; Acetone, 20 vol): ✓
- Solid on cooling [1, 4]: ✓
- Solution at 40° C. [1, 4]: ✓
- Solid on cooling ([1]; Chlorobenzene, 5 vol): ✓
- Solution at reflux ([1]; Chlorobenzene, 5 vol): ✓
- Solid on cooling ([1]; Chlorobenzene, 10 vol): ✓
- Solution at reflux ([1]; Chlorobenzene, 10 vol): ✓
- Solid on cooling ([1]; Chlorobenzene, 15 vol): ✓
- Solution at reflux ([1]; Chlorobenzene, 15 vol): ✓
- Solid on cooling ([1]; Chlorobenzene, 20 vol): ✓
- Solution at 20° C. ([1]; Chlorobenzene, 20 vol): ×
- Solution at reflux ([1]; Chlorobenzene, 20 vol): ✓
- Solid on cooling ([1]; DCM, 5 vol): ✓
- Solution at reflux ([1]; DCM, 5 vol): ✓
- Solid on cooling ([1]; DCM, 10 vol): ✓
- Solution at 40° C. ([1]; DCM, 10 vol): ✓
- Solution at 40° C. ([1]; DCM, 15 vol): ✓
- Solid on cooling ([1]; EtOAc, 5 vol): ✓
- Solution at reflux ([1]; EtOAc, 5 vol): ✓
- Solid on cooling ([1]; EtOAc, 10 vol): ✓
- Solution at reflux ([1]; EtOAc, 10 vol): ✓
- Solid on cooling ([1]; EtOAc, 15 vol): ✓
- Solution at reflux ([1]; EtOAc, 15 vol): ✓
- Solid on cooling ([1]; EtOAc, 20 vol): ✓
- Solution at reflux ([1]; EtOAc, 20 vol): ✓
- Solid on cooling ([1]; EtOH, 5 vol): ✓
- Solution at reflux ([1]; EtOH, 5 vol): ✓
- Solid on cooling ([1]; EtOH, 10 vol): ✓
- Solution at 40° C. ([1]; EtOH, 10 vol): ✓
- Solution at 40° C. ([1]; EtOH, 15 vol): ✓
- Solution at 20° C. ([1]; Ethanol/Water (15% v/v, 0.5 aw), 5 vol): ✓
- Solid on cooling ([1]; Ethyl formate, 5 vol): ✓
- Solution at reflux ([1]; Ethyl formate, 5 vol): ✓
- Solid on cooling ([1]; Ethyl formate, 10 vol): ✓
- Solution at reflux ([1]; Ethyl formate, 10 vol): ✓
- Solid on cooling ([1]; Ethyl formate, 15 vol): ✓
- Solution at reflux ([1]; Ethyl formate, 15 vol): ✓
- Solid on cooling ([1]; Ethyl formate, 20 vol): ✓
- Solution at reflux ([1]; Ethyl formate, 20 vol): ✓
- Solution at reflux ([1]; Heptane, 10 vol): Oiled
- Solution at 40° C. ([1]; Isopropanol/Water (12%, v/v, 0.5 aw), 5 vol): ✓
- Solid on cooling ([1]; Isopropyl acetate, 5 vol): ✓
- Solution at reflux ([1]; Isopropyl acetate, 5 vol): ✓
- Solid on cooling ([1]; Isopropyl acetate, 10 vol): ✓
- Solution at reflux ([1]; Isopropyl acetate, 10 vol): ✓
- Solid on cooling ([1]; Isopropyl acetate, 15 vol): ✓
- Solution at reflux ([1]; Isopropyl acetate, 15 vol): ✓
- Solid on cooling ([1]; Isopropyl acetate, 20 vol): ✓
- Solution at reflux ([1]; Isopropyl acetate, 20 vol): ✓
- Solid on cooling ([1]; MEK, 5 vol): ✓
- Solution at reflux ([1]; MEK, 5 vol): ✓
- Solid on cooling ([1]; MEK, 10 vol): ✓
- Solution at reflux ([1]; MEK, 10 vol): ✓
- Solid on cooling ([1]; MEK, 15 vol): ✓
- Solution at reflux ([1]; MEK, 15 vol): ✓
- Solid on cooling ([1]; MEK, 20 vol): ✓
- Solution at 40° C. ([1]; MEK, 20 vol): ✓
- Solid on cooling ([1]; MeCN, 5 vol): ✓
- Solution at reflux ([1]; MeCN, 5 vol): ✓
- Solid on cooling ([1]; MeCN, 10 vol): ✓
- Solution at reflux ([1]; MeCN, 10 vol): ✓
- Solid on cooling ([1]; MeCN, 15 vol): ✓
- Solution at reflux ([1]; MeCN, 15 vol): ✓
- Solid on cooling ([1]; MeCN, 20 vol): ✓
- Solution at reflux ([1]; MeCN, 20 vol): ✓
- Solution at 20° C. ([1]; MeOH, 5 vol): ✓
- Solid on cooling ([1]; MeTHF, 5 vol): ✓
- Solution at reflux ([1]; MeTHF, 5 vol): ✓
- Solid on cooling ([1]; MeTHF, 10 vol): ✓
- Solution at reflux ([1]; MeTHF, 10 vol): ✓
- Solid on cooling ([1]; MeTHF, 15 vol): ✓
- Solution at reflux ([1]; MeTHF, 15 vol): ✓
- Solid on cooling ([1]; MeTHF, 20 vol): ✓
- Solution at reflux ([1]; MeTHF, 20 vol): ✓
- Solid on cooling ([1]; Methyl acetate, 10 vol): ✓
- Solution at reflux ([1]; Methyl acetate, 10 vol): ✓
- Solid on cooling ([1]; Methyl acetate, 15 vol): ✓
- Solution at reflux ([1]; Methyl acetate, 15 vol): ✓
- Solid on cooling ([1]; Methyl acetate, 20 vol): ✓
- Solution at reflux ([1]; Methyl acetate, 20 vol): ✓
- Solid on cooling ([1]; Nitromethane, 5 vol): ✓
- Solution at reflux ([1]; Nitromethane, 5 vol): ✓
- Solid on cooling ([1]; Nitromethane, 10 vol): ✓
- Solution at reflux ([1]; Nitromethane, 10 vol): ✓
- Solid on cooling ([1]; Nitromethane, 15 vol): ✓
- Solution at reflux ([1]; Nitromethane, 15 vol): ✓
- Solid on cooling ([1]; Nitromethane, 20 vol): ✓
- Solution at reflux ([1]; Nitromethane, 20 vol): ✓
- Solid on cooling ([1]; THF, 5 vol): ✓
- Solution at reflux ([1]; THF, 5 vol): ✓
- Solution at reflux ([1]; THF, 10 vol): ✓
- Solid on cooling ([1]; Toluene, 5 vol): ✓
- Solution at reflux ([1]; Toluene, 5 vol): ✓
- Solid on cooling ([1]; Toluene, 10 vol): ✓
- Solution at reflux ([1]; Toluene, 10 vol): ✓
- Solid on cooling ([1]; Toluene, 15 vol): ✓
- Solution at reflux ([1]; Toluene, 15 vol): ✓
- Solid on cooling ([1]; Toluene, 20 vol): ✓
- Solution at reflux ([1]; Toluene, 20 vol): ✓
- Solid on cooling ([1]; Water, 5 vol): ✓
- Solution at reflux ([1]; Water, 5 vol): ✓
- Solution at reflux ([1]; Water, 10 vol): ✓
- form change on storage, double-bagged (closed) vial [2]: At t=10 d, Form A converted to Pattern #2
- form change on storage, open vial [2]: At t=5 d, Form A converted to Pattern #2
- form change on storage, double-bagged (closed) vial [2, 5]: after 10 days
- form change on storage, open vial [2, 5]: converted to Form C (Pattern #2) after 5 days
- Solubility in SIF buffers: FeSSIF ([3]; 37° C. up to 1 h): Insoluble
- Solubility in SIF buffers: FaSSGF ([3]; 37° C. up to 24 h): Insoluble
- solubility at 24 h ([3]; pH 5, fessif): > 30 mg/mL
- solubility at 24 h ([3]; pH 6.5, fassif): > 30 mg/mL
- solubility in the SIF buffers (in words) ([3]; FaSSIF, FeSSIF, FaSSGF): highly soluble in the SIF buffers examined; also recorded: highly soluble in the SIF buffers used, apart from FaSSGF
- behaviour at 30 mg/ml in SIF buffers ([3]; FaSSIF, FeSSIF, FaSSGF, 37° C., 24 h): only remained suspended in FaSSGF
- solubility in the SIF buffers (in words) ([3]; FaSSIF, FeSSIF, FaSSGF, listed as Tabernanthalog sorbate salt (Form A)): readily soluble in FaSSIF and FeSSIF during 24 h
- Tabernanthalog RRT = 1.00 (trended HPLC data, chemical purity) ([3]; tabernanthalog sorbate salt, input before FaSSGF): 99.41
- fate of the suspended phase in FaSSGF (XRPD, 1H NMR) ([3]; 37° C.): supported disproportionation
- fate of the suspended phase in FaSSGF (XRPD, 1H NMR) ([3]; 37° C., listed as Tabernanthalog sorbate salt (Form A)): only exhibited disproportionation after 24 h in FaSSGF
